Data reported in the supplement of paper PMC11451515.

Tests used:
Conditions in all cases: 48 h
[1] = system: SEM cells; experiment: AUC of viability dose-response curve (% viability x log10 dose units); higher = less sensitive
Procedure, shortened: (§1)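 Leukemia cells adapted to each medium (500 or 1000 cells/well, 1536-well plates) were exposed to library compounds in DMSO for 48 h at 37°C at 11 threefold doses, 47 μM to 0.79 nM. Luminescence by CellTiter-Glo One was normalised per plate to DMSO and cell-free wells, then fitted with a four-parameter log-logistic curve on log10 dose. Curves above full viability were scaled and quality-control failures removed before area under the curve was integrated by trapezoidal rule.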

[2] = system: P12-Ichikawa; experiment: as above
Procedure, shortened: as §1

[3] = system: NOMO1; experiment: as above
Procedure, shortened: as §1

[4] = system: SEM cells; experiment: cell viability relative to DMSO control; higher = less cytotoxic
Procedure, shortened: (§2)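 Viability was expressed as a per-plate percentage of DMSO wells, with cell-free wells as background. Leukemia cells (NOMO1 or SEM at 500 cells/well, P12-Ichikawa at 1000 cells/well) were adapted for at least four passages in each medium and seeded in 1536-well plates (5 μl). Library compounds in DMSO were pin-dosed over an 11-point threefold series from 47 μM to 0.79 nM, and CellTiter-Glo One luminescence was read after 48 h at 37°C.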

[5] = system: P12-Ichikawa; experiment: as above
Procedure, shortened: as §2

[6] = system: NOMO1; experiment: as above
Procedure, shortened: as §2

OC[C@H]1O[C@@H](Oc2ccc(O)cc2)[C@H](O)[C@@H](O)[C@@H]1O
AUC of viability dose-response curve
Conditions | [1] | [2] | [3]
HPLM + 10% dialyzed FBS | 376 | 461 | 461
RPMI 5 mM glucose + 10% FBS | 390 | 421 | 426
RPMI 5 mM glucose + 10% dialyzed FBS | 397 | 426 | 404

cell viability [%]
Conditions | [4] | [5] | [6]
HPLM + 10% dialyzed FBS, 0.000781 µM | 68.3 | 85.1 | 88.1
HPLM + 10% dialyzed FBS, 0.00234 µM | 82.3 | 93.5 | 102
HPLM + 10% dialyzed FBS, 0.00702 µM | 75.3 | 93.1 | 95.4
HPLM + 10% dialyzed FBS, 0.0211 µM | 93 | 95.7 | 105
HPLM + 10% dialyzed FBS, 0.0632 µM | 90.1 | 98.3 | 95.9
HPLM + 10% dialyzed FBS, 0.19 µM | 95.1 | 99.9 | 102
HPLM + 10% dialyzed FBS, 0.569 µM | 95.7 | 102 | 79.7
HPLM + 10% dialyzed FBS, 1.71 µM | 19.1 | 101 | 101
HPLM + 10% dialyzed FBS, 5.12 µM | 93.1 | 94.2 | 86.5
HPLM + 10% dialyzed FBS, 15.4 µM | 77.7 | 98.4 | 114
HPLM + 10% dialyzed FBS, 46.1 µM | 76.3 | 97 | 104
RPMI 5 mM glucose + 10% FBS, 0.000781 µM | 71.7 | 80.7 | 81.4
RPMI 5 mM glucose + 10% FBS, 0.00234 µM | 90.8 | 79.8 | 93.9
RPMI 5 mM glucose + 10% FBS, 0.00702 µM | 73.7 | 87 | 87
RPMI 5 mM glucose + 10% FBS, 0.0211 µM | 96.3 | 94.9 | 83.1
RPMI 5 mM glucose + 10% FBS, 0.0632 µM | 90.3 | 95.7 | 86
RPMI 5 mM glucose + 10% FBS, 0.19 µM | 95.4 | 86 | 87.7
RPMI 5 mM glucose + 10% FBS, 0.569 µM | 102 | 84.7 | 98.5
RPMI 5 mM glucose + 10% FBS, 1.71 µM | 17 | 83.6 | 91.5
RPMI 5 mM glucose + 10% FBS, 5.12 µM | 82.3 | 90.9 | 92.5
RPMI 5 mM glucose + 10% FBS, 15.4 µM | 103 | 93.1 | 90.8
RPMI 5 mM glucose + 10% FBS, 46.1 µM | 77.2 | 91.3 | 88.9
RPMI 5 mM glucose + 10% dialyzed FBS, 0.000781 µM | 86.2 | 80.1 | 65.2
RPMI 5 mM glucose + 10% dialyzed FBS, 0.00234 µM | 81.8 | 84.8 | 74.8
RPMI 5 mM glucose + 10% dialyzed FBS, 0.00702 µM | 92.2 | 91.1 | 85.4
RPMI 5 mM glucose + 10% dialyzed FBS, 0.0211 µM | 87.8 | 93.4 | 82.1
RPMI 5 mM glucose + 10% dialyzed FBS, 0.0632 µM | 72 | 93.6 | 82.3
RPMI 5 mM glucose + 10% dialyzed FBS, 0.19 µM | 101 | 87.8 | 79.6
RPMI 5 mM glucose + 10% dialyzed FBS, 0.569 µM | 105 | 88.4 | 89.1
RPMI 5 mM glucose + 10% dialyzed FBS, 1.71 µM | 22.1 | 88.7 | 94.5
RPMI 5 mM glucose + 10% dialyzed FBS, 5.12 µM | 97.9 | 93.1 | 86.1
RPMI 5 mM glucose + 10% dialyzed FBS, 15.4 µM | 88 | 89.6 | 95.5
RPMI 5 mM glucose + 10% dialyzed FBS, 46.1 µM | 81.2 | 88.4 | 93.4

Fc1cc(-c2cccc3ncc(-c4cnn(C5CCNCC5)c4)nc23)cc(F)c1CN1CCOCC1
AUC of viability dose-response curve
Conditions | [1] | [2] | [3]
HPLM + 10% dialyzed FBS | 379 | 407 | 378
RPMI 5 mM glucose + 10% FBS | 378 | 423 | 409
RPMI 5 mM glucose + 10% dialyzed FBS | 385 | 412 | 412

cell viability [%]
Conditions | [4] | [5] | [6]
HPLM + 10% dialyzed FBS, 0.000781 µM | – | 119 | 111
HPLM + 10% dialyzed FBS, 0.00234 µM | – | 113 | 122
HPLM + 10% dialyzed FBS, 0.00702 µM | – | 122 | 130
HPLM + 10% dialyzed FBS, 0.0211 µM | – | 115 | 132
HPLM + 10% dialyzed FBS, 0.0632 µM | – | 123 | 108
HPLM + 10% dialyzed FBS, 0.19 µM | – | 118 | 124
HPLM + 10% dialyzed FBS, 0.569 µM | – | 108 | 135
HPLM + 10% dialyzed FBS, 1.71 µM | – | 113 | 103
HPLM + 10% dialyzed FBS, 5.12 µM | – | 68.8 | 42.6
HPLM + 10% dialyzed FBS, 15.4 µM | – | 57.7 | 21.5
HPLM + 10% dialyzed FBS, 46.1 µM | – | 28.9 | 16.1
RPMI 5 mM glucose + 10% FBS, 0.000781 µM | 110 | 122 | 109
RPMI 5 mM glucose + 10% FBS, 0.00234 µM | 113 | 123 | 107
RPMI 5 mM glucose + 10% FBS, 0.00702 µM | 107 | 120 | 119
RPMI 5 mM glucose + 10% FBS, 0.0211 µM | 110 | 118 | 102
RPMI 5 mM glucose + 10% FBS, 0.0632 µM | 112 | 122 | 111
RPMI 5 mM glucose + 10% FBS, 0.19 µM | 105 | 118 | 116
RPMI 5 mM glucose + 10% FBS, 0.569 µM | 103 | 118 | 114
RPMI 5 mM glucose + 10% FBS, 1.71 µM | 95.8 | 120 | 105
RPMI 5 mM glucose + 10% FBS, 5.12 µM | 27.4 | 91.2 | 84
RPMI 5 mM glucose + 10% FBS, 15.4 µM | 25.7 | 70.7 | 29.4
RPMI 5 mM glucose + 10% FBS, 46.1 µM | 16 | 27.1 | 18.3
RPMI 5 mM glucose + 10% dialyzed FBS, 0.000781 µM | – | 119 | 128
RPMI 5 mM glucose + 10% dialyzed FBS, 0.00234 µM | – | 122 | 115
RPMI 5 mM glucose + 10% dialyzed FBS, 0.00702 µM | – | 119 | 124
RPMI 5 mM glucose + 10% dialyzed FBS, 0.0211 µM | – | 114 | 122
RPMI 5 mM glucose + 10% dialyzed FBS, 0.0632 µM | – | 110 | 125
RPMI 5 mM glucose + 10% dialyzed FBS, 0.19 µM | – | 120 | 103
RPMI 5 mM glucose + 10% dialyzed FBS, 0.569 µM | – | 123 | 119
RPMI 5 mM glucose + 10% dialyzed FBS, 1.71 µM | – | 101 | 103
RPMI 5 mM glucose + 10% dialyzed FBS, 5.12 µM | – | 87.2 | 95.2
RPMI 5 mM glucose + 10% dialyzed FBS, 15.4 µM | – | 60.1 | 54.9
RPMI 5 mM glucose + 10% dialyzed FBS, 46.1 µM | – | 15.1 | 25.9

CO[C@H]1C[C@@H]2CC[C@@H](C)[C@@](O)(O2)C(=O)C(=O)N2CCCC[C@H]2C(=O)O[C@H]([C@H](C)C[C@@H]2CC[C@@H](OP(C)(C)=O)[C@H](OC)C2)CC(=O)[C@H](C)/C=C(\C)[C@@H](O)[C@@H](OC)C(=O)[C@H](C)C[C@H](C)/C=C/C=C/C=C/1C
AUC of viability dose-response curve
Conditions | [1] | [2] | [3]
HPLM + 10% dialyzed FBS | 382 | 453 | 452
RPMI 5 mM glucose + 10% FBS | 360 | 411 | 462
RPMI 5 mM glucose + 10% dialyzed FBS | 380 | 414 | 476

cell viability [%]
Conditions | [4] | [5] | [6]
HPLM + 10% dialyzed FBS, 0.000781 µM | 91 | – | 110
HPLM + 10% dialyzed FBS, 0.00234 µM | 97.7 | – | 114
HPLM + 10% dialyzed FBS, 0.00702 µM | 99.9 | – | 109
HPLM + 10% dialyzed FBS, 0.0211 µM | 98.8 | – | 116
HPLM + 10% dialyzed FBS, 0.0632 µM | 81.7 | – | 106
HPLM + 10% dialyzed FBS, 0.19 µM | 40.8 | – | 113
HPLM + 10% dialyzed FBS, 0.569 µM | 80.2 | – | 102
HPLM + 10% dialyzed FBS, 1.71 µM | 81.9 | – | 105
HPLM + 10% dialyzed FBS, 5.12 µM | 75.4 | – | 96.7
HPLM + 10% dialyzed FBS, 15.4 µM | 71.1 | – | 97
HPLM + 10% dialyzed FBS, 46.1 µM | 64.1 | – | 94.5
RPMI 5 mM glucose + 10% FBS, 0.000781 µM | 87.7 | 119 | –
RPMI 5 mM glucose + 10% FBS, 0.00234 µM | 96 | 138 | –
RPMI 5 mM glucose + 10% FBS, 0.00702 µM | 105 | 121 | –
RPMI 5 mM glucose + 10% FBS, 0.0211 µM | 76.7 | 126 | –
RPMI 5 mM glucose + 10% FBS, 0.0632 µM | 80.9 | 118 | –
RPMI 5 mM glucose + 10% FBS, 0.19 µM | 42.9 | 97.7 | –
RPMI 5 mM glucose + 10% FBS, 0.569 µM | 85.8 | 122 | –
RPMI 5 mM glucose + 10% FBS, 1.71 µM | 78.8 | 96.3 | –
RPMI 5 mM glucose + 10% FBS, 5.12 µM | 63.7 | 88.4 | –
RPMI 5 mM glucose + 10% FBS, 15.4 µM | 66.6 | 100 | –
RPMI 5 mM glucose + 10% FBS, 46.1 µM | 52.9 | 81.4 | –
RPMI 5 mM glucose + 10% dialyzed FBS, 0.000781 µM | 105 | – | 122
RPMI 5 mM glucose + 10% dialyzed FBS, 0.00234 µM | 98.1 | – | 113
RPMI 5 mM glucose + 10% dialyzed FBS, 0.00702 µM | 108 | – | 118
RPMI 5 mM glucose + 10% dialyzed FBS, 0.0211 µM | 108 | – | 115
RPMI 5 mM glucose + 10% dialyzed FBS, 0.0632 µM | 92.3 | – | 117
RPMI 5 mM glucose + 10% dialyzed FBS, 0.19 µM | 40.3 | – | 121
RPMI 5 mM glucose + 10% dialyzed FBS, 0.569 µM | 85.7 | – | 120
RPMI 5 mM glucose + 10% dialyzed FBS, 1.71 µM | 86.9 | – | 125
RPMI 5 mM glucose + 10% dialyzed FBS, 5.12 µM | 71.9 | – | 124
RPMI 5 mM glucose + 10% dialyzed FBS, 15.4 µM | 68.2 | – | 103
RPMI 5 mM glucose + 10% dialyzed FBS, 46.1 µM | 57.1 | – | 120
